Measurements as given in patent US10168342B2, “Lipid probes and uses thereof” (THE SCRIPPS RESEARCH INSTITUTE, priority 2015, dated 2019).

Tests used:
Experiment in all cases: isoTOP-ABPP mapping of AEA-DA-modified peptides in Neuro2a cells
Assay type in all cases: cell-based
[1] = biological target: T1, AEA-DA-modified peptides in Neuro2a cells (Mus musculus, UniProt Q60716); details: AEA-DA-modified peptide P4HA2 Q60716 177-197, SEQ ID NO 76; probe 100 μM, 12 replicates
T1 construct: endogenous in cells; host or cells: Neuro2a

[2] = biological target: T2, AEA-DA-modified peptides in Neuro2a cells (Mus musculus, UniProt P57776); details: AEA-DA-modified peptide EEF1D P57776 25-39, SEQ ID NO 35; probe 100 μM, 12 replicates
T2 construct: endogenous in cells; host or cells: Neuro2a

[3] = biological target: T3, AEA-DA-modified peptides in Neuro2a cells (Mus musculus, UniProt P56812); details: AEA-DA-modified peptide PDCD5 P56812 69-80, SEQ ID NO 80; probe 100 μM, 12 replicates
T3 construct: endogenous in cells; host or cells: Neuro2a

[4] = biological target: T4, AEA-DA-modified peptides in Neuro2a cells (Mus musculus, UniProt Q8R2Y8); details: AEA-DA-modified peptide PTRH2 Q8R2Y8 35-69, SEQ ID NO 93; probe 100 μM, 12 replicates
T4 construct: endogenous in cells; host or cells: Neuro2a

[5] = biological target: T5, AEA-DA-modified peptides in Neuro2a cells (Mus musculus, UniProt Q8BFY9); details: AEA-DA-modified peptide TNPO1 Q8BFY9 45-65, SEQ ID NO 114; probe 100 μM, 12 replicates
T5 construct: endogenous in cells; host or cells: Neuro2a

[6] = biological target: T6, AEA-DA-modified peptides in Neuro2a cells (Mus musculus, UniProt P53811); details: AEA-DA-modified peptide PITPNB P53811 32-45, SEQ ID NO 86; probe 100 μM, 12 replicates
T6 construct: endogenous in cells; host or cells: Neuro2a

[7] = biological target: T7, AEA-DA-modified peptides in Neuro2a cells (Mus musculus, UniProt O08579); details: AEA-DA-modified peptide EMD O08579 176-205, SEQ ID NO 37; probe 100 μM, 12 replicates
T7 construct: endogenous in cells; host or cells: Neuro2a

[8] = biological target: T8, AEA-DA-modified peptides in Neuro2a cells (Mus musculus, UniProt Q60864); details: AEA-DA-modified peptide STIP1 Q60864 506-514, SEQ ID NO 106; probe 100 μM, 12 replicates
T8 construct: endogenous in cells; host or cells: Neuro2a

[9] = biological target: T9, AEA-DA-modified peptides in Neuro2a cells (Mus musculus, UniProt P61161); details: AEA-DA-modified peptide ACTR2 P61161 259-295, SEQ ID NO 5; probe 100 μM, 12 replicates
T9 construct: endogenous in cells; host or cells: Neuro2a

[10] = biological target: T10, AEA-DA-modified peptides in Neuro2a cells (Mus musculus, UniProt Q91YE6); details: AEA-DA-modified peptide IPO9 Q91YE6 777-788, SEQ ID NO 54; probe 100 μM, 12 replicates
T10 construct: endogenous in cells; host or cells: Neuro2a

[11] = biological target: T11, AEA-DA-modified peptides in Neuro2a cells (Mus musculus, UniProt Q61425); details: AEA-DA-modified peptide HADH Q61425 250-272, SEQ ID NO 47; probe 100 μM, 12 replicates
T11 construct: endogenous in cells; host or cells: Neuro2a

[12] = biological target: T12, AEA-DA-modified peptides in Neuro2a cells (Mus musculus, UniProt Q91WD5); details: AEA-DA-modified peptide NDUFS2 Q91WD5 36-57, SEQ ID NO 67; probe 100 μM, 12 replicates
T12 construct: endogenous in cells; host or cells: Neuro2a
T12 sequence (Q91WD5 34-463): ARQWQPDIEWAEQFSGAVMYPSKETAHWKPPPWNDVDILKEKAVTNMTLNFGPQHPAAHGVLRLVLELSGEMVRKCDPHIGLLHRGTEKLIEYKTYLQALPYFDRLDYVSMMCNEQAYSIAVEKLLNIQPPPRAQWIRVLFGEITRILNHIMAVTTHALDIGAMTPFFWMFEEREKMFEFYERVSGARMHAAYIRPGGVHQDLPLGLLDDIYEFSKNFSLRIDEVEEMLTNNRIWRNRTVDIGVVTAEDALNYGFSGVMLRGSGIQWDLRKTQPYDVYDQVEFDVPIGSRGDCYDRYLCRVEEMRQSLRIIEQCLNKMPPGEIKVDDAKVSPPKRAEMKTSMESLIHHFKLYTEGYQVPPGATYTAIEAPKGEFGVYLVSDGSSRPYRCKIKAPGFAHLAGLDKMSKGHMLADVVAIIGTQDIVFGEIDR

T10 sequence (Q91YE6 whole entry): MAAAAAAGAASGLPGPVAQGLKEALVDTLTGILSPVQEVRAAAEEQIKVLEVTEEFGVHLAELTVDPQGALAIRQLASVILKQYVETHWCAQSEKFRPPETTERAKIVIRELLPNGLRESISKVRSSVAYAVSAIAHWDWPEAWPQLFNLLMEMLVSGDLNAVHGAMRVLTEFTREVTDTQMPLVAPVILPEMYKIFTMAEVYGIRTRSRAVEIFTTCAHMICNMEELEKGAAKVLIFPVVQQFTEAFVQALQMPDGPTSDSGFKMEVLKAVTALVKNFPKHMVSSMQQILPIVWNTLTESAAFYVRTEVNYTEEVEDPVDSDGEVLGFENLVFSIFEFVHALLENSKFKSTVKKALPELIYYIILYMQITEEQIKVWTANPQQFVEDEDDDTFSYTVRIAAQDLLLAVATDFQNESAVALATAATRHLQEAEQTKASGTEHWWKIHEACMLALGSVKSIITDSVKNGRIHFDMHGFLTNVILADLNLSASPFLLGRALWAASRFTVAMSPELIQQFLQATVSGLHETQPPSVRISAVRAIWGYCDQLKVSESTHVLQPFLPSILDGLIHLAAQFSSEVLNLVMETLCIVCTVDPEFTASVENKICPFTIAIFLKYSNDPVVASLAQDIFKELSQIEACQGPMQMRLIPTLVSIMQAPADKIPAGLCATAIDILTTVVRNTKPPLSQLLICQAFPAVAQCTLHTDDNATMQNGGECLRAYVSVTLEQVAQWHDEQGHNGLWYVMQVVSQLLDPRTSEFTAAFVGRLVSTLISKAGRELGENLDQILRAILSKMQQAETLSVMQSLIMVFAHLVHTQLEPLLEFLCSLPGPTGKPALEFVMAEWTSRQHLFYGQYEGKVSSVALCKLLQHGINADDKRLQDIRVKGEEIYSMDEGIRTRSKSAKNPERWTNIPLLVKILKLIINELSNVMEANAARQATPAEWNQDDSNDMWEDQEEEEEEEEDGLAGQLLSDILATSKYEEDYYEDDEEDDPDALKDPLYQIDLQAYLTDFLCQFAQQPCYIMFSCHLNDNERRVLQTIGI
T3 sequence (P56812 whole entry): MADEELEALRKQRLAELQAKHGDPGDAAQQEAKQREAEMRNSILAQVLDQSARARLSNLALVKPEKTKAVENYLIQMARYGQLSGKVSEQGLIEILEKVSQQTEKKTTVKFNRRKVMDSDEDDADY
T1 sequence (Q60716 24-537): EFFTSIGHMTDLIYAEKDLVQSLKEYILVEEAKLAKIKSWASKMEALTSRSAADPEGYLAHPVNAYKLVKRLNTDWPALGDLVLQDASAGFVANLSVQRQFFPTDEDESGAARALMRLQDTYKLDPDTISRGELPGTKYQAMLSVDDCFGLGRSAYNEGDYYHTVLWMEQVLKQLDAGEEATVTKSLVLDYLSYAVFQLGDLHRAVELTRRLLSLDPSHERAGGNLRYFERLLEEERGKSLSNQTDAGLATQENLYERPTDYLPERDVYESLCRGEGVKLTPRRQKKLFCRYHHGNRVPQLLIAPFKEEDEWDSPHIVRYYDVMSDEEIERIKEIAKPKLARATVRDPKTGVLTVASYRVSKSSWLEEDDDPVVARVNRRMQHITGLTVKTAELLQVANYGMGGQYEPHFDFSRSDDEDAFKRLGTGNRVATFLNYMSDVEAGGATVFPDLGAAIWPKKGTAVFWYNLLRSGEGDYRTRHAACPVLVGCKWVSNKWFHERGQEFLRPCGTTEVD
T6 sequence (P53811 whole entry): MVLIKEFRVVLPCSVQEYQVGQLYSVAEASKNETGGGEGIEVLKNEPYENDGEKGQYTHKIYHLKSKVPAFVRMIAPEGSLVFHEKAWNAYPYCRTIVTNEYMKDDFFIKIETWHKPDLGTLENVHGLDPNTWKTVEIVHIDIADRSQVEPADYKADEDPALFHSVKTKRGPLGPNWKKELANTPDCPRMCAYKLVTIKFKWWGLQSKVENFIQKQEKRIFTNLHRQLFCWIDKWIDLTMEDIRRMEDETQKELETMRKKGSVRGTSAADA
T4 sequence (Q8R2Y8 whole entry): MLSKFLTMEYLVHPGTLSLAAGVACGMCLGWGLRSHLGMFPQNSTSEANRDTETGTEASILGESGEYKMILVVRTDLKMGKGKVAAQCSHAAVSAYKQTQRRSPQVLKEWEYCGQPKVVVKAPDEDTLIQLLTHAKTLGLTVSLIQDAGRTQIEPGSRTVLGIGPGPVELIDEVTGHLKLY
T11 sequence (Q61425 13-314): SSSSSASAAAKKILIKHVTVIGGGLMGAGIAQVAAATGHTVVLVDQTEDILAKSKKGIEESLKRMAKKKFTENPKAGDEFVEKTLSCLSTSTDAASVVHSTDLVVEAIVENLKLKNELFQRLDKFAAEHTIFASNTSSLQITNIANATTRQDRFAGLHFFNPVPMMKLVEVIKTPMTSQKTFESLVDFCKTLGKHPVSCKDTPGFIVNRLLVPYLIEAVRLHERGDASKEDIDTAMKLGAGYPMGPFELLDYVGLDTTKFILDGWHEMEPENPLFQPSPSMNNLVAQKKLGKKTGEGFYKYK
T2 sequence (P57776 whole entry): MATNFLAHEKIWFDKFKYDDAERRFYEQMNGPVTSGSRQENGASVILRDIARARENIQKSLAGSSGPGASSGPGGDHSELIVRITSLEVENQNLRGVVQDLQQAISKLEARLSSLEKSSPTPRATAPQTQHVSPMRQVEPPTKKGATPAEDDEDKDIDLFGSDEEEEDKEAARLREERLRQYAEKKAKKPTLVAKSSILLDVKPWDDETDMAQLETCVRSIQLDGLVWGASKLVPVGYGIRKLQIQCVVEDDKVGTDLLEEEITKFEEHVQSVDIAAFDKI
T5 sequence (Q8BFY9 whole entry): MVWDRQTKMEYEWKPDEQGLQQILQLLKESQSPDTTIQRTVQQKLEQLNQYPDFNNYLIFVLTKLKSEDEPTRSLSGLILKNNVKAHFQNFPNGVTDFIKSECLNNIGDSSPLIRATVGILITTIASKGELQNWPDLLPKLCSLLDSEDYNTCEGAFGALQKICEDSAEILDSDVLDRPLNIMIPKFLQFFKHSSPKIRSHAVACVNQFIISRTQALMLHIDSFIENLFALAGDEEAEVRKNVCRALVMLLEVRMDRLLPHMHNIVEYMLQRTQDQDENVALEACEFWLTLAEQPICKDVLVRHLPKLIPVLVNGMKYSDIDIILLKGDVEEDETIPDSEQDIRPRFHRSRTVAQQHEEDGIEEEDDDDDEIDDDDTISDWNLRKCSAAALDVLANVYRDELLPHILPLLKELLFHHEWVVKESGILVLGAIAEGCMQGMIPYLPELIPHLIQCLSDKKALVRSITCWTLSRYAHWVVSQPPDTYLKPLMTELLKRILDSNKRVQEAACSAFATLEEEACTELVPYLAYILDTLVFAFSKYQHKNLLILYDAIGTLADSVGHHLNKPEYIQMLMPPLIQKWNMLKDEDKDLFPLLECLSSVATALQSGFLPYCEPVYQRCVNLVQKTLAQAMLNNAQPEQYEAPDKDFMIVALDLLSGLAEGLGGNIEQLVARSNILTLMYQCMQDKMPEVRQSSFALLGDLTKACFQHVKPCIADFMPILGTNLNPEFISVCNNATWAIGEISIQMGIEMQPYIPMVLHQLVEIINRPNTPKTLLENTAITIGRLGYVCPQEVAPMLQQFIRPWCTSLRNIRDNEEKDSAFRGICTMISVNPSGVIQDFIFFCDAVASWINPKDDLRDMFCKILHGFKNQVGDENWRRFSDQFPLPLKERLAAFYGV
T7 sequence (O08579 whole entry): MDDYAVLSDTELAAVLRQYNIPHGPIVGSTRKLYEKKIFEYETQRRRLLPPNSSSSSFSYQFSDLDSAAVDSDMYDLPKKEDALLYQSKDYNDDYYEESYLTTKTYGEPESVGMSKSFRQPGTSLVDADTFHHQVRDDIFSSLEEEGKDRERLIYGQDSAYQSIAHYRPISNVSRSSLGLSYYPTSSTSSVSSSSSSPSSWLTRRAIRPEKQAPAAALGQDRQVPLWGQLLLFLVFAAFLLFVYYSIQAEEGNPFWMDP

Molecule `C#CCCCC1(CC/C=C\C/C=C\C/C=C\CCCC(=O)NCCO)N=N1` [AEA-DA, (5Z,8Z,11Z)-N-(2-hydroxyethyl)-14-(3-(pent-4-yn-1-yl)-3H-diazirin-3-yl)tetradeca-5,8,11-trienamide] has a Times observed [1] of 3, a Times observed [2] of 10 and a Times observed [3] of 5. The Times observed [4] was 2, the Times observed [5] was 5 and the Times observed [6] was 4. It also gave a Times observed [7] of 2, a Times observed [8] of 3 and a Times observed [9] of 2. The Times observed [10] was 3, the Times observed [11] was 10 and the Times observed [12] was 3.
